In patent publication US6800659B2, “Compounds for modulating cell proliferation” (HSC Research and Development Limited Partnership, priority 2000, dated 2004):

Experiments:
[1] = test system: normal bone marrow cells; experiment: In vitro purging of normal bone marrow, then colony assay; format: cell-based
Experimental: Heparinized bone marrow cells were layered over Percoll (1.077 gm/ml) (Pharmacia Fine Chemical, Piscataway N.J.) and centrifuged at 400 g at 4° C. for 10 minutes to remove neutrophils and RBCs.
For the purging process, the cells were resuspended at 1×10^6/ml in complete medium with or without 50 μM CR4. The cells were incubated with the CR4 for two and a half hours at 37° C., 5% CO2. At the end of this period the cells were thoroughly washed in medium to remove CR4 and then cultured at 2×10^5 cells/ml in IMDM (OCl, Toronto) containing 0.9% (vol/vol) methylcellulose supplemented with 30% FCS (Cansera Rexdale, ON.) or normal human plasma, a cocktail of cytokines containing G-CSF (10 ng/ml, Amgen), IL-3 (40 U/ml, Immunex), MGF (50 ng/ml, Immunex), Etryhropoietin (2 u/ml, Epprex) or TPO (10 ng/ml, Amgen) and 5×10^−5M b-2-mercaptoethanol. The culture mixture was plated in 1 ml volumes into 35 mm petri dishes and incubated at 37° C., 5% CO2 in a humidified atmosphere. All cultures were evaluated at 14 days for the number of BFU-E colonies (defined as aggregates of more than 500 hemaglobinized cells or, 3 or more erythroid subcolonies), CFU-C colonies (defined as granulocyte or monocyte-macrophage cells or both) and CFU-GEMM colonies (a mixed population comprising of all elements).
For the purging process, the cells were resuspended at 1×10^6/ml in complete medium with or without 50 μM CR11. The cells were incubated with the tryrphostin for seven hours at 37° C., 5% CO2. At the end of this period the cells were thoroughly washed in medium to remove CR11 and then cultured at 2×10^5 cells/ml in IMDM (OCl, Toronto) containing 0.9% (vol/vol) methylcellulose supplemented with 30% FCS (Cansera Rexdate, ON.) or normal human plasma, a cocktail of cytokines containing G-CSF (10 ng/ml, Amgen), IL-3 (40 U/ml, Immunex), MGF (50 ng/ml, Immunex), Erythropoietin (2 u/ml, Epprex) or TPO (10 ng/ml, Amgen) and 5×10^−5M β-2-mercaptoethanol. The culture mixture was plated in 1 ml volumes into 35 mm petri dishes and incubated at 37° C., 5% CO2 in a humidified atmosphere. All cultures were evaluated at 14 days for the number of BFU-E colonies (defined as aggregates of more than 500 hemoglobinized cells or, 3 or more erythroid subcolonies), CFU-C colonies (defined as granulocyte or monocyte-macrophage cells or both) and CFU-GEMM colonies (a mixed population comprising of all elements).

[2] = test system: OCl-AML-3 cells; experiment: In vitro purging of OCl-AML-3 acute myeloid leukemia cells; format: cell-based; conditions: 2.5-5 hours exposure (FIG. 17)
Experimental: (§1) For the purging assay, the cells were resuspended in complete medium with or without CR4 as indicated and incubated at 37° C., 5% CO2 for 0-5 hours. Cells were then washed thoroughly with medium to remove CR4, resuspended and plated in 1 ml volumes at 5×10^3 cells/ml, in the absence of exogenous growth factors, into 35 mm petri dishes (Nunc, Gibco) containing alpha MEM (Gibco) plus 10% FCS (Cansera Rexdale, ON.) in 0.9% (vol/vol) methylcellulose (Fluka, Switzerland). Cultures were set at 37° C., 5% CO2 in a humidified atmosphere. Colonies consisting of more than 20 cells were counted at 5 days or earlier using an inverted microscope.

[3] = test system: OCl-LY2 lymphoma cells; experiment: Colony growth of OCl-LY2 lymphoma cells in methylcellulose culture; format: cell-based; conditions: colonies at 5 days (FIG. 7)
Experimental: OCl-LY2 cells were plated in 1 ml volumes, in the absence of exogenous growth factors, into 35 mm petri dishes (Nunc, Gibco) containing IMDM (OCl, Toronto) plus 20% human cord blood plasma in 0.9% (vol/vol) methylcellulose (Fluka, Switzerland) and the indicated doses of CR4. Cultures were set at 37° C., 5% CO2 in a humidified atmosphere. Colonies consisting of more than 20 cells were counted at 5 days or earlier using an inverted microscope.

[4] = test system: Philadelphia positive Z119 acute lymphoblastic leukemia cells; experiment: Colony growth of Z119 ALL cells in methylcellulose culture; format: cell-based, human; conditions: low nanomolar doses; colonies at 7 days (FIG. 3)
Experimental: Z119 cells were plated in 1 ml volumes at a density of 1×10^4 cells/ml, in the absence of exogenous growth factors, into 35 mm petri dishes (Nunc, Gibco) containing IMDM (OCl, Toronto) plus 20% FCS (Cansera Rexdale, ON.) in 0.9% (vol/vol) methylcellulose (Fluka, Switzerland) with the indicated concentration of CR4. Cultures were set at 37° C., 5% CO2 in a humidified atmosphere. Colonies consisting of more than 20 cells were counted at 7 days or earlier using an inverted microscope.

[5] = test system: Z119 acute lymphoblastic leukemia cells; experiment: In vitro purging of Z119 acute lymphoblastic leukemia; format: cell-based, human
Experimental: as §1, with “remove the” for “remove”, “ml volumes,” for “ml volumes at 5×10^3 cells/ml,”, “plus 20%” for “plus 10%”, “at 9” for “at 5”

[6] = two and a half hours exposure to 50 μM (FIG. 14)

Compound: N#C/C(=C\C=C\c1ccc(O)c(O)c1)C(=O)NCc1ccccc1 [CR4, (E,E)-2-(benzylaminocarbonyl)-3-(3,4-dihydroxystyryl)acrylonitrile]
- normal bone marrow growth and differentiation ([1]; identical doses and times: 25-50 μM, 2.5 to 5 hour exposure): unaffected
- BFU-E colonies [1, 6]: slight drop
- CFU-C colony numbers [1, 6]: increased significantly
- inhibition of colony formation ([1]; two and a half hours exposure to 50 μM, colonies at 14 days (FIG. 14)): did not result in significant inhibition
- killing of OCl-AML-3 cells ([2]; 25 μM): significant killing
- killing of OCl-AML-3 cells ([2]; 50 μM): significant killing
- inhibition at 2.5 µM ([3]; 120 h, 2.5 μM, read-out: inhibition of cell proliferation and survival): 90%
- inhibition of cell proliferation and survival ([3]; high nanomolar to low micromolar doses): significantly inhibited
- inhibition of Z119 ALL cell proliferation and survival [4]: significant inhibition
- killing of Z119 cells ([5]; 25 μM, 2.5 hours exposure (FIG. 15)): 85%
- subsequent cell growth of Z119 cells ([5]; 25 μM, five hour exposure (FIG. 15)): complete ablation
- inhibition of Z119 cell growth ([5]; 50 μM, 2.5 hours exposure (FIG. 15)): complete inhibition
- killing of Z119 cells ([5]; at the concentrations examined (25 and 50 μM), 0-5 hours (FIG. 15)): rapid killing
